Data taken from patent publication US20030202967A1, “Development and use of human pancreatic cell lines” (priority 1995, published 2003).

Columns and labels:
TRM-1 cells = assay: Insulin production from TRM-1 cells (radioimmunoassay); format: cell-based, human
Description: Levels of insulin and glucagon released into medium and the corresponding hormone content of acid ethanol extracts of sonicated cells were measured by radioimmunoassay (RIA) as described in Otonkoski, T., et al., J. Clin. Invest., 92:1459-1466 (1993).
Cells grown in this way were treated with nicotinamide for varying periods of time and assayed for insulin production using an extremely sensitive radioimmunoassay {Beattie, G., et al., J. Clin. Endocr. Metab., 78:1232-40 (1994)}.

[1] = test system: epithelial cells in the human fetal pancreas (HFP); assay: Mitogenic effect on human fetal pancreas epithelial cells; format: cell-based
Description: Sci., 05:753-64 (1993)}. Thus, in this example, the epithelial cells were initially grown in the extracellular matrix from 804G cells and HGF/SF in DMEM, supplemented with 10% fetal bovine serum, at 37° C. and 10% CO2. In this growth condition, the epithelial cells formed an islet-like cell cluster (ICC)-derived monolayer cultures having a doubling time of 48 hours. With such high percentage of mitotically active cells, the use of retroviral vectors which require mitotically active cells for successful integration of viral DNA become attractive. After retroviral infection, the epithelial cells were grown in DMEM, supplemented with 10% fetal bovine serum, at 37° C. and 10% CO2, without the extracellular matrix from 804G cells and HGF/SF. The use of HGF/SF offers an added advantage of selecting for epithelial over stromal cells. Stromal cells produce the growth factor HGF. […] Thus, HGF/SF treatment results in selective growth of the epithelial cells but also increases the mitotic index of the epithelial cells. The following method used the HGF/SF method.

[2] = test system: CAT activity in LNSVoCL-infected 208F clones; format: cell-based, rat; conditions: some LNSVoCL-infected 208F clones also infected with pLISVHygL
Description: The ability of LNSVoCL and LoCRNLo to mediate inducible CAT expression was tested in rat 208F cells. The cells were infected by one of the two CAT-expressing vectors followed by the lac repressor-expressing vector pLISVHygL. Infected cells were selected in media containing G418 and hygromycin. CAT activity in LNSVoCL-infected 208F clones was determined in the presence or absence of IPTG.

With `Cn1c(=O)c2[nH]cnc2n(C)c1=O` [theophylline] the “Stimulation of insulin production by treatment” value (TRM-1 cells; TRM-1 cells) was “not stimulated”.
“HGF/SF: growth factor/scatter factor, ligand of the met receptor” was tested, and the Mitogenic effect [1] was “strongly mitogenic”.
`NC(=O)c1cccnc1` [Nic., nicotinamide] was tested, and the “Insulin production Day 0” value (TRM-1 cells; TRM-1 suspension culture +10 mM Nic., Day 0) was 0 μU insulin/48 hr/ml medium, the “Insulin production Day 5” value (TRM-1 cells; TRM-1 suspension culture +10 mM Nic., Day 5) was 0 μU insulin/48 hr/ml medium and the “Insulin production Day 7” value (TRM-1 cells; TRM-1 suspension culture +10 mM Nic., Day 7) was 0 μU insulin/48 hr/ml medium. For the same compound, the “Insulin production Day 11” value (TRM-1 cells; TRM-1 suspension culture +10 mM Nic., Day 11) was 2.8 μU insulin/48 hr/ml medium, the “Insulin production Day 13” value (TRM-1 cells; TRM-1 suspension culture +10 mM Nic., Day 13) was 4.0 μU insulin/48 hr/ml medium and the “Insulin production Day 17” value (TRM-1 cells; TRM-1 suspension culture +10 mM Nic., Day 17) was 5.6 μU insulin/48 hr/ml medium. For the same compound, the “Insulin expression in suspension cultures” value (TRM-1 cells; TRM-1 suspension cultures, after 11 days of exposure) was “small amounts of insulin”.
In the case of `CC(C)SC1O[C@H](CO)[C@H](O)[C@H](O)[C@H]1O` (stereo partly shown) [IPTG, isopropyl thiogalactopyranoside], the “Increase in CAT activity in the presence of IPTG over its absence” value [2] was 80-100 fold.
